Legend:
[1] = system: T98G cells; experiment: MTT assay, T98G; assay type: cell-based, human; details: for IC50: Homo sapiens, T98G, MTT, 24 h treatment, mean ± SD; for SI (selectivity index): IC50 CCD 841 CoTr divided by IC50 T98G
Protocol: (§1) The effects of TZD–TSCs 2–5 on the cellular viability of a panel of cell lines were investigated through an 3-(4,5-dimethylthiazol-2-yl)-2,5-diphenyl-2H-tetrazolium bromide (MTT) assay, following a 24 h treatment with the compounds. The panel consisted of three solid tumor cells: T98G (glioblastoma multiforme), HepG2 (hepatocellular carcinoma, epithelial), and HT29 (colon adenocarcinoma, epithelial), as well as noncancerous cells CCD 841 CoTr (normal colon, epithelial).
(§2) Primary single dose screenings of TZD–TSCs 2–5 were performed at a concentration of 200 μg/mL, and those that elicited a greater than 80% inhibition of cell proliferation were analyzed at several concentrations, to find their half-maximal inhibitory concentration (IC50). The IC50 values, reported as the mean ± SD in Table 2, indicate the concentration of the tested compound that inhibits the growth/viability of the cancer cell population by 50%. In this specific case of an MTT assay, which measures the activity of mitochondrial dehydrogenases (as an indicator of cell viability), the IC50 values stand for the concentration that inhibits the metabolic activity of cells by 50%.
(§3) Human colon adenocarcinoma cells, HT29 (ATCC no. HTB-38), derived from a grade I tumor, were cultured in roswell park memorial institute Medium (RPMI) 1640 medium, supplemented with 10% fetal calf serum (FCS) (GibcoTM, Paisley, UK) and antibiotics (100 U/mL penicillin and 100 μg/mL streptomycin) (Sigma, St. Louis, MO), at 37 °C in a humidified atmosphere with 5% CO2. Human normal colon epithelial cells, CCD 841 CoTr (ATCC no. CRL-1807), were cultured in RPMI 1640 + dulbecco’s modified eagle medium (DMEM) (1:1) medium (Sigma, St. Louis, MO), supplemented with 10% FCS and antibiotics, at 34 °C in a 5% CO2/95% air atmosphere. Human glioblastoma T98G cells were cultured in Dulbecco’s Modified Eagle’s Medium (DMEM) (Sigma Aldrich, St. Louis, MO, USA), supplemented with 10% fetal bovine serum (FBS), penicillin (100 U/mL), and streptomycin (100 μg/mL). Human hepatocellular carcinoma cells, HepG2, were maintained in Eagle’s Minimum Essential Medium, supplemented with 10% FBS, penicillin (100 U/mL), and streptomycin (100 μg/mL).
(§4) After 24 h of incubation of the cells with the tested compounds in 100 μL of culture medium, MTT solution (5 mg/mL, 25 μL/well) was added and incubated for an additional 3 h. The purple crystals of formazan which formed in the medium were solubilized overnight in 10% sodium dodecyl sulphate (SDS) in a 0.01 M HCl mixture. The product was quantified spectrophotometrically by measuring its absorbance at 570 nm using an Emax Microplate Reader (Molecular Devices Corporation, Menlo Park, CA, USA).

[2] = system: HepG2 cells; experiment: MTT assay, HepG2; assay type: cell-based, human; details: for IC50: Homo sapiens, HepG2, MTT, 24 h treatment, mean ± SD; for SI (selectivity index): IC50 CCD 841 CoTr divided by IC50 HepG2
Protocol: as §1, §2, §3, §4

[3] = system: HT29 cells; experiment: MTT assay, HT29; assay type: cell-based, human; details: for IC50: Homo sapiens, HT-29, HT29, MTT, 24 h treatment, mean ± SD; for SI (selectivity index): IC50 CCD 841 CoTr divided by IC50 HT29
Protocol: as §1, §2, §3, §4

[4] = system: CCD 841 CoTr cells; experiment: MTT assay, normal colon epithelial cells; assay type: cell-based; details: Homo sapiens, CCD 841 CoTr (noncancerous), 24 h treatment, mean ± SD
Protocol: as §1, §2, §3, §4

[5] = system: CCD 841 CoTr cells; experiment: Nitric oxide measurement (Griess), CCD 841 CoTr; assay type: cell-based, human; details: 200 μg/mL
Protocol: (§5) Nitrate, i.e., a stable end product of NO, was measured in culture supernatants with a spectrophotometric method based on the Griess reaction. Culture supernatants were collected from the cell cultures treated with specific concentrations of the tested compounds (25, 75, 150, and 200 μg/mL, respectively). Briefly, 100 μL of the culture supernatant was placed in 96-well flat-bottomed plates in triplicate and incubated with 100 μL of Griess reagent (1% sulfanilamide/0.1% N-(1-naphthyl)ethylenediamine dihydrochloride) in 3% H3PO4 at room temperature for 10 min. The optical density was measured at 550 nm using a microplate reader. A standard curve was prepared using 0.5–25 μM sodium nitrite (NaNO2) for calibration.

[6] = system: HT29 cells; experiment: Nitric oxide measurement (Griess), HT29; assay type: cell-based, human; details: HT29, 200 μg/mL
Protocol: as §5

[7] = DPPH free radical scavenging test
From the text: Antioxidant activity is a complex procedure, usually happening through several multiple or predominant chemical mechanisms (i.e., hydrogen atom transfer (HAT), single electron transfer (SET), and the ability to chelate transition metals), and it is influenced by many factors, which cannot be fully described with one single method. Therefore, it is important to perform more than one type of measurement to take into account the various mechanisms of antioxidant action. In this study, to assess the antioxidant activity of TZD–TSCs 2–5, two complementary tests were used: a DPPH (2,2-diphenyl-1-picrylhydrazyl) free radical-scavenging ability assay, that detects the HAT and SET mechanisms, and a FRAP (ferric reducing antioxidant power) assay, that prefers the […] mechanism. The antioxidant powers of 2–5 were compared to standard antioxidants, such as the water-soluble synthetic analogue of vitamin E (Trolox) and ascorbic acid (vitamin C).
The free radical scavenging activity of […] was measured by the DPPH assay. Briefly, 100 μl of DPPH solution (0.2 mg/mL in ethanol) was added to 100 μL of the tested compound concentrations (25, 75, 150, and 200 μg/mL, respectively). Trolox, at increasing concentrations (1–50 μg/mL), was used as a standard. After 20 min of incubation at room temperature, the absorbances of the solutions were measured at 515 nm. The lower the absorbance, the higher the free radical scavenging activity of the compound. The activity of each compound was determined by comparing its absorbance with that of the standard.
The ability of the compounds to scavenge the DPPH radical was calculated by the following formula:DPPH scavenging effect (%) = [(Xcontrol − Xcompound/Xcontrol) × 100], where Xcontrol is the absorbance of the control and Xcompound is the absorbance in the presence of TZD-TSCs preparations.

[8] = system: bacteria; set-up: method as in PMID 29701728; details: in vitro antibacterial potency; cited from earlier work

| Compound | IC50 [1] [µM] | SI (selectivity index) [1] | IC50 [2] [µM] | SI (selectivity index) [2] | IC50 [3] [µM] | SI (selectivity index) [3] | IC50 [4] [µM] | NO production, [NO2^−] [5] [µM] | NO production, [NO2^−] [6] [µM] | DPPH reduction value corresponding to concentration of Trolox ([7]; compound at 25 μg/mL) [µg/mL] | DPPH reduction value corresponding to concentration of Trolox ([7]; compound at 75 μg/mL) [µg/mL] | DPPH reduction value corresponding to concentration of Trolox ([7]; compound at 150 μg/mL) [µg/mL] | DPPH reduction value corresponding to concentration of Trolox ([7]; compound at 200 μg/mL) [µg/mL] | Minimal inhibitory concentrations (MICs) [8] [µM] |
| --- | --- | --- | --- | --- | --- | --- | --- | --- | --- | --- | --- | --- | --- | --- |
| O=C(C=C1SC(=O)NC1=O)Oc1ccccc1C=NNC(=S)Nc1ccccc1Cl [TZD–TSC 2] | 26.8 ± 1.54 | 1.66 | 10.4 ± 0.72 | 4.30 | 43.9 ± 1.74 | 1.02 | 44.6 ± 2.91 | 0.566 | 0.272 | 2.942 | 6.670 | 11.412 | 15.068 | 8.48 to 16.94 |
| O=C(C=C1SC(=O)NC1=O)Oc1ccccc1C=NNC(=S)Nc1cccc(Cl)c1 [TZD–TSC 3] | 28.3 ± 2.21 | 3.54 | 2.97 ± 0.39 | 33.80 | 78.3 ± 5.47 | 1.28 | 100 ± 4.82 | 0.492 | 0.201 | 2.616 | 9.168 | 17.167 | 21.439 | 8.48 to 16.94 |

Source: paper PMC10743653, “Combined In Silico and In Vitro Analyses to Assess the Anticancer Potential of Thiazolidinedione–Thiosemicarbazone Hybrid Molecules” (International Journal of Molecular Sciences, 2023)
